Measurements: ChEMBL document CHEMBL3091356, “Salen and tetrahydrosalen derivatives act as effective inhibitors of the tumor-associated carbonic anhydrase XII--a new scaffold for designing isoform-selective inhibitors” (Bioorg Med Chem Lett, 2013)

Assays:
Carbonic anhydrase 12 = Carbonic anhydrase 12 (Homo sapiens, UniProt O43570); assay: Inhibition of human recombinant carbonic anhydrase 12-mediated CO2 hydration preincubated for 15 mins by stopped-flow assay
Carbonic anhydrase 9 = Carbonic anhydrase 9 (Homo sapiens, UniProt Q16790)
Description: Inhibition of human recombinant carbonic anhydrase 9-mediated CO2 hydration preincubated for 15 mins by stopped-flow assay

Carbonic anhydrase 2 = Carbonic anhydrase 2 (Homo sapiens, UniProt P00918); assay: Inhibition of human recombinant carbonic anhydrase 2-mediated CO2 hydration preincubated for 15 mins by stopped-flow assay
Carbonic anhydrase 1 = Carbonic anhydrase 1 (Homo sapiens, UniProt P00915); assay: Inhibition of human recombinant carbonic anhydrase 1-mediated CO2 hydration preincubated for 15 mins by stopped-flow assay
Carbonic anhydrase 1, sequence (P00915 whole entry): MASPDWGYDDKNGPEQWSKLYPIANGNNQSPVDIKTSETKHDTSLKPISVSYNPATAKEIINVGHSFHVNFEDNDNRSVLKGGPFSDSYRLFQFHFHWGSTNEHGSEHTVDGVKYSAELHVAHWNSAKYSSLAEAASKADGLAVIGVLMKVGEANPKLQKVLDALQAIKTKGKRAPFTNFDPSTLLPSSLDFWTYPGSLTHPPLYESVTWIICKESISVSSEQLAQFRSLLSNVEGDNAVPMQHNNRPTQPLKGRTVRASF

Carbonic anhydrase 12, sequence (O43570 whole entry): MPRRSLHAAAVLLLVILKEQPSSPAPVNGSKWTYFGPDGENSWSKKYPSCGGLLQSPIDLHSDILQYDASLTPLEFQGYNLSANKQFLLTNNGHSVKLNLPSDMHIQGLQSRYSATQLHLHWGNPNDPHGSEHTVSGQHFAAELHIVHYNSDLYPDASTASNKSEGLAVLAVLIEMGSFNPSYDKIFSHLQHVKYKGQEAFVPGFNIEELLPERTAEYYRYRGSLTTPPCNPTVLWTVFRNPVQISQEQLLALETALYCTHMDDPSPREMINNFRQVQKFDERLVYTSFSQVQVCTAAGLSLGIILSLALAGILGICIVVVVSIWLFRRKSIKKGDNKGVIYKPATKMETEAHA

Row | Ki (Carbonic anhydrase 12) | Ki (Carbonic anhydrase 9) | Ki (Carbonic anhydrase 2) | Ki (Carbonic anhydrase 1) | Compound
1 | 0.04 µM | 3.37 µM | 0.39 µM | > 100 µM | Oc1ccccc1CNCCCNCc1ccccc1O
2 |  | > 100 µM |  | > 100 µM | Oc1ccccc1CNCCNCc1ccccc1O
3 |  |  |  | > 100 µM | Oc1ccccc1/C=N/CCCC/N=C/c1ccccc1O
4 |  | 4.19 µM |  | > 100 µM | Oc1ccccc1CNCCCCCNCc1ccccc1O
5 |  | > 100 µM | > 100 µM | > 100 µM | COc1cccc(/C=N/CC/N=C/c2cccc(OC)c2O)c1O
6 |  | 4.37 µM |  | > 100 µM | Oc1ccccc1CNCCCCNCc1ccccc1O
7 |  | 2.45 µM |  | > 100 µM | Oc1ccccc1/C=N/c1ccccc1/N=C/c1ccccc1O
8 |  | 2.51 µM |  | > 100 µM | Oc1ccccc1CNCCCCCCNCc1ccccc1O
9 |  | 4.47 µM |  | > 100 µM | Oc1ccccc1/C=N/CCCCC/N=C/c1ccccc1O
10 | 0.28 µM | > 100 µM | 1.72 µM | > 100 µM | Oc1ccccc1/C=N/CC/N=C/c1ccccc1O
11 |  | > 100 µM | > 100 µM | > 100 µM | O=[N+]([O-])c1ccccc1/C=N/CCCCCC/N=C/c1ccccc1[N+](=O)[O-]
12 |  | 15.7 µM |  | > 100 µM | Oc1ccccc1/C=N/CCC/N=C/c1ccccc1O
13 | 0.43 µM | 4.35 µM | 3.6 µM | > 100 µM | Oc1ccccc1/C=N/CCCCCC/N=C/c1ccccc1O

Row | Compound | Ki (Carbonic anhydrase 12) | Ki (Carbonic anhydrase 9) | Ki (Carbonic anhydrase 2) | Ki (Carbonic anhydrase 1)
14 | Oc1ccccc1CNc1ccccc1NCc1ccccc1O |  | 0.22 µM |  | > 100 µM
